For assay [1], the system named is human colon cancer cell line HCT116. In words: Cell proliferation inhibitory activity (Cell Counting Kit-8), colon cancer HCT116. The conditions noted are these: HCT-116, 96 h, HCT116, 4 days. It is filed as cell-based. The protocol:
(§1) The cell proliferation inhibitory activity was measured for compounds of the present invention represented by formula (I). Cancer cell proliferation inhibitory activity was measured using the Cell Counting Kit-8 (Dojindo). 2000 cells each of human colon cancer cell line HCT116 purchased from the American Type Culture Collection (Virginia, USA) were seeded into each well of a 96-well culture plate followed by the addition of a predetermined concentration of the compounds and cultivating in a CO2environment for 4 days at 37° C. On the fourth day of cultivating, the Cell Counting Kit-8 solution was added and absorbance (measuring wavelength: 450 nm, reference wavelength: 615 nm) was measured in accordance with the protocol provided with the kit.
Background: Formazan colour is commonly taken as a measure of viable cells.

Assay [2] deals with human prostate cancer cell line PC3. In words: Cell proliferation inhibitory activity (Cell Counting Kit-8), prostate cancer PC3. The conditions noted are these: 96 h, PC3, 4 days. Type of assay: cell-based. As to the method:
as §1
(§2) Cancer cell proliferation inhibitory activity was also measured for human lung cancer cell line NCI-H460 and human prostate cancer cell line PC3 purchased from the American Type Culture Collection. 1000 and 3000 cells of NCI-H460 and PC3, respectively, were seeded into each well of a 96-well culture plate followed by testing in the same manner as the human colon cancer cell line and calculating the percentage of cell proliferation inhibition at 2.5 μM.

For assay [3], the system named is human lung cancer cell line NCI-H460. In words: Cell proliferation inhibitory activity (Cell Counting Kit-8), lung cancer NCI-H460. It is filed as cell-based. The following applies: 96 h, NCI-H460, 4 days, read-out: Cell proliferation inhibitory activity (% Inhibition at 2.5 μM) Non-small cell lung cancer (NCI-H460). The protocol: as §1, §2
For the next assay, the target named is human PI3K(p110α/p85α) (Homo sapiens, UniProt P42336). The assay can be described thus: Measurement of PI3K inhibitory activity (AlphaScreen GST Detection Kit). It is filed as biochemical. The following applies: 10 μM ATP, 4 μM PI(4,5)P2, read-out: Enzyme inhibitory activity (IC50, μM) PI3K α. The protocol:
The inhibitory activity of compounds of the present invention represented by formula (I) were measured with human PI3K(p110α/p85α) prepared in a baculovirus expression system using the AlphaScreen GST Detection Kit (Perkin Elmer, Inc.). A predetermined concentration of the compound dissolved in dimethylsulfoxide (DMSO) and PI3K were mixed in a 384-well assay plate and after allowing to stand for 20 minutes at room temperature, 4 μM PI(4,5)P2 (Echelon Corporation) and 10 μM ATP (5 mM Hepes, pH 7.5, 2.5 mM MgCl2) were added to initiate the reaction. After reacting for 15 minutes at 37° C., GST-GRP1 expressed and purified from Escherichia coli, Anti-GST Acceptor Beads (Perkin Elmer, Inc.), Streptavidin Donor Beads (Perkin Elmer, Inc.) and biotin-PI(3,4,5) P3 (Echelon Corporation) (10 mM Tris-HCl pH 7.4, 150 mM NaCl, 7.5 mM EDTA, 1 mM DTT, 0.1% Tween 20) were added, and after allowing to stand for 1 hour at room temperature, light at 520 to 620 nm emitted as a result of exciting with light at 680 nm was measured with the Envision measuring instrument (Perkin Elmer, Inc.).
Test Example 1 described above can be performed according to “Analytical Biochemistry, 2003, 313, 234-245; Alexander Gray et al”.
For orientation: Alpha assays give light when donor and acceptor beads are brought close together.

human PI3K(p110α/p85α), sequence (P42336 whole entry): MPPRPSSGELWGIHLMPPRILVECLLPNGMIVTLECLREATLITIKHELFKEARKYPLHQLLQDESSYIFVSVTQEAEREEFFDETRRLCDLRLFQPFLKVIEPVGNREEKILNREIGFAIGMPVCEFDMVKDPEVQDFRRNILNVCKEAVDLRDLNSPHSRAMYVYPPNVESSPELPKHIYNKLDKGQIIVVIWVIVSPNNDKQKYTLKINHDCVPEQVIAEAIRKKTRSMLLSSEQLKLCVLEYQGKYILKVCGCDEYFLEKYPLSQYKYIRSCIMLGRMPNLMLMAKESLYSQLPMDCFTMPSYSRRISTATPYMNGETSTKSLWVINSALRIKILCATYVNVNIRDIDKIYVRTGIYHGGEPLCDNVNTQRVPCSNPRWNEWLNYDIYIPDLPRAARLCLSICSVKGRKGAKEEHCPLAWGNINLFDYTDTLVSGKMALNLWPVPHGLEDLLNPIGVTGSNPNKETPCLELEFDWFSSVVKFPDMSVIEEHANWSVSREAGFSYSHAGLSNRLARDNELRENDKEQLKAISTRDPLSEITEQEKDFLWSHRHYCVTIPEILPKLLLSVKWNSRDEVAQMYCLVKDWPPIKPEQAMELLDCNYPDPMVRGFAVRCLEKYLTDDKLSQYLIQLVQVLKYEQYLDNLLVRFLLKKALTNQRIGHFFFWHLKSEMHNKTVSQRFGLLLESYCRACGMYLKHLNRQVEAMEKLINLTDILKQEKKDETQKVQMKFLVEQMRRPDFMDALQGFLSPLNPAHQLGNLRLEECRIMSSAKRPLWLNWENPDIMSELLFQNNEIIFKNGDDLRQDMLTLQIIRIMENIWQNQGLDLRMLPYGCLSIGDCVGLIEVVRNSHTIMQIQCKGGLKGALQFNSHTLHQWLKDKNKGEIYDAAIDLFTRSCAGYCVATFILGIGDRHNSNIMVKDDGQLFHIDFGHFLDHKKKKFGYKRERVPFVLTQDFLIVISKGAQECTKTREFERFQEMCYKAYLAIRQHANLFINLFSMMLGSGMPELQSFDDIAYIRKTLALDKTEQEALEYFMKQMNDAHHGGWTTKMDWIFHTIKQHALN
human PI3K(p110α/p85α), sequence (P27986 whole entry partner): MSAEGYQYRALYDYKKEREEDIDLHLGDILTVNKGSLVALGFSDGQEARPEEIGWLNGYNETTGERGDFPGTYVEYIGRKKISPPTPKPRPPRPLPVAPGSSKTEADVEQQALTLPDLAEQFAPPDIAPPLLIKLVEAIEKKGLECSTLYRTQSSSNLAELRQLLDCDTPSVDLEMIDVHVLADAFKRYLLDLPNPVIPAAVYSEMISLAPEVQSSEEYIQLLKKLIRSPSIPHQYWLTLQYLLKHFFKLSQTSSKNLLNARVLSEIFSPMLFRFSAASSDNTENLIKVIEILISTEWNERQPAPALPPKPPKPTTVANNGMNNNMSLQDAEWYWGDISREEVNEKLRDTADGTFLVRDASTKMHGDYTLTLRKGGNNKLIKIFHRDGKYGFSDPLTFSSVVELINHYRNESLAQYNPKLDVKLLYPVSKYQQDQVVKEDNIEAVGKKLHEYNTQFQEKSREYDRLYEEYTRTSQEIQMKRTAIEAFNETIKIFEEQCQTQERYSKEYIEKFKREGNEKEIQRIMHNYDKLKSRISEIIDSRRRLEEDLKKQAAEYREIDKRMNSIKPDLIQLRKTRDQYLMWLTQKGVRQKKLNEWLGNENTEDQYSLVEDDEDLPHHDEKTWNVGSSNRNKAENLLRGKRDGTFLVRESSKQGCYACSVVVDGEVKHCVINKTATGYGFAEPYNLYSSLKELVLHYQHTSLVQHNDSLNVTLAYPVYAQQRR

Consider `Nc1ncc(-c2nc(N3CCOCC3)nc3c2CCN3C(=O)Nc2ccc(NCCN3CCOCC3)cc2)cn1` [Example D-108, 4-(2-Amino-pyrimidin-5-yl)-2-morpholin-4-yl-5,6-dihydro-pyrrolo[2,3-d]pyrimidine-7-carboxylic acid [4-(2-morpholin-4-yl-ethylamino)-phenyl]-amide], for which the inhibition at 2.5 µM in assay [1] came out at 92%; in assay [2] it was 90%; in assay [3] it was 95%. At human PI3K(p110α/p85α), the 50% inhibitory concentration (IC50) (as a rule, the concentration that inhibits the measured activity by half) was determined as 0.007 µM.

As for `Nc1ncc(-c2nc(N3CCOCC3)nc3c2CCN3c2ccc(C(=O)N3CCNCC3)nc2)cn1` [Example D-128, {5-[4-(2-Amino-pyrimidin-5-yl)-2-morpholin-4-yl-5,6-dihydro-pyrrolo[2,3-d]pyrimidin-7-yl]-pyridin-2-yl}-piperazin-1-yl-methanone], the inhibition at 2.5 µM is 81% in assay [1], 60% in assay [2] and 95% in assay [3]. For the same compound, the IC50 at human PI3K(p110α/p85α) was determined as 0.008 µM.

With `Cc1cc(C(=O)N2CCOCC2)ccc1N1CCc2c(-c3cnc(N)nc3)nc(N3CCOCC3)nc21` [Example D-137, {4-[4-(2-Amino-pyrimidin-5-yl)-2-morpholin-4-yl-5,6-dihydro-pyrrolo[2,3-d]pyrimidin-7-yl]-3-methyl-phenyl}-morpholin-4-yl-methanone], the values for the inhibition at 2.5 µM in assay [1], in assay [2] and in assay [3] were 60%, 71% and 52%, respectively. Also, the IC50 at human PI3K(p110α/p85α) is 0.092 µM.

Turning to `CCN1CCN(C(=O)c2ccc(N3CCc4c(-c5cnc(N)nc5)nc(N5CCOCC5)nc43)c(F)c2)CC1` [Example D-138, {4-[4-(2-Amino-pyrimidin-5-yl)-2-morpholin-4-yl-5,6-dihydro-pyrrolo[2,3-d]pyrimidin-7-yl]-3-fluoro-phenyl}-(4-ethyl-piperazin-1-yl)-methanone], the inhibition at 2.5 µM in assay [1] amounted to 82%; in assay [2] it was 85%; in assay [3], 86%. Also, the IC50 at human PI3K(p110α/p85α) stood at 0.11 µM.

`CN(CCN1CCOCC1)C(=O)c1ccc(N2CCc3c(-c4cnc(N)nc4)nc(N4CCOCC4)nc32)cc1` [Example D-139, 4-[4-(2-Amino-pyrimidin-5-yl)-2-morpholin-4-yl-5,6-dihydro-pyrrolo[2,3-d]pyrimidin-7-yl]-N-methyl-N-(2-morpholin-4-yl-ethyl)-benzamide]: the inhibition at 2.5 µM stood at 90% in assay [1], 89% in assay [2] and 72% in assay [3]. The 50% inhibitory concentration (IC50) on human PI3K(p110α/p85α) was determined as 0.009 µM.

Turning to `Nc1ncc(-c2nc(N3CCOCC3)nc3c2CCN3c2ccc(CC(=O)N3CCNCC3)cc2)cn1` [Example D-172, 2-{4-[4-(2-Amino-pyrimidin-5-yl)-2-morpholin-4-yl-5,6-dihydro-pyrrolo[2,3-d]pyrimidin-7-yl]-phenyl}-1-piperazin-1-yl-ethanone], the inhibition at 2.5 µM was 86% in assay [1], 86% in assay [2] and 79% in assay [3]. In addition, the IC50 on human PI3K(p110α/p85α) stood at 0.008 µM.

As for `Cc1ccc(C(=O)N2CCN(C)CC2)cc1NC(=O)N1CCc2c(-c3cnc(N)nc3)nc(N3CCOCC3)nc21` [Example D-223, 4-(2-Amino-pyrimidin-5-yl)-2-morpholin-4-yl-5,6-dihydro-pyrrolo[2,3-d]pyrimidine-7-carboxylic acid [2-methyl-5-(4-methyl-piperazine-1-carbonyl)-phenyl]-amide], the inhibition at 2.5 µM in assay [1] stood at 95%; in assay [2], 95%; in assay [3], 92%. Moreover, on human PI3K(p110α/p85α), the IC50 amounted to 0.007 µM.

For the compound `CN1CCN(C(=O)c2ccc(NC(=S)N3CCc4c(-c5cnc(N)nc5)nc(N5CCOCC5)nc43)cc2)CC1` [Example D-231, 4-(2-Amino-pyrimidin-5-yl)-2-morpholin-4-yl-5,6-dihydro-pyrrolo[2,3-d]pyrimidine-7-carbothioic acid [4-(4-methyl-piperazine-1-carbonyl)-phenyl]-amide], the inhibition at 2.5 µM in assay [1] was found to be 33%; in assay [2], 37%; in assay [3], 71%. For the same compound, the IC50 at human PI3K(p110α/p85α) was 0.011 µM.

Turning to `Cc1ccc(N2CCOCC2)cc1NC(=O)N1CCc2c(-c3cnc(N)nc3)nc(N3CCOCC3)nc21` [Example D-237, 4-(2-Amino-pyrimidin-5-yl)-2-morpholin-4-yl-5,6-dihydro-pyrrolo[2,3-d]pyrimidine-7-carboxylic acid (2-methyl-5-morpholin-4-yl-phenyl)-amide], the inhibition at 2.5 µM in assay [1] was determined as 95%; in assay [2] it was 97%; in assay [3], 84%. Also, the IC50 at human PI3K(p110α/p85α) came to 0.005 µM.

As for `CCN1CCN(c2ccc(NC(=O)N3CCc4c(-c5cnc(N)nc5)nc(N5CCOCC5)nc43)c(C)c2)CC1` [Example D-242, 4-(2-Amino-pyrimidin-5-yl)-2-morpholin-4-yl-5,6-dihydro-pyrrolo[2,3-d]pyrimidine-7-carboxylic acid [4-(4-ethyl-piperazin-1-yl)-2-methyl-phenyl]-amide], the inhibition at 2.5 µM stood at 99% in assay [1], 100% in assay [2] and 55% in assay [3]. Besides, on human PI3K(p110α/p85α), the IC50 came out at 0.01 µM.

Consider `Nc1ncc(-c2nc(N3CCOCC3)nc3c2CCN3c2ccc(C(=O)NCc3ccncc3)cc2)cn1` [Example D-264, 4-[4-(2-Amino-pyrimidin-5-yl)-2-morpholin-4-yl-5,6-dihydro-pyrrolo[2,3-d]pyrimidin-7-yl]-N-pyridin-4-ylmethyl-benzamide], for which the inhibition at 2.5 µM in assay [1] was determined as 63%; in assay [2], 72%; in assay [3], 82%. The IC50 at human PI3K(p110α/p85α) turned out to be 0.007 µM.

`Nc1ncc(-c2nc(N3CCOCC3)nc3c2CCN3c2ccc(C(=O)N3CCN(c4ccncc4)CC3)cc2)cn1` [Example D-265, {4-[4-(2-Amino-pyrimidin-5-yl)-2-morpholin-4-yl-5,6-dihydro-pyrrolo[2,3-d]pyrimidin-7-yl]-phenyl}-(4-pyridin-4-yl-piperazin-1-yl)-methanone]: the inhibition at 2.5 µM came to 98% in assay [1], 96% in assay [2] and 71% in assay [3]. Moreover, the IC50 at human PI3K(p110α/p85α) is 0.006 µM.

For the compound `Nc1ncc(-c2nc(N3CCOCC3)nc3c2CCN3C(=O)Nc2c(F)cc(N3CCOCC3)cc2F)cn1` [Example D-273, 4-(2-Amino-pyrimidin-5-yl)-2-morpholin-4-yl-5,6-dihydro-pyrrolo[2,3-d]pyrimidine-7-carboxylic acid (2,6-difluoro-4-morpholin-4-yl-phenyl)-amide], the inhibition at 2.5 µM is 83% in assay [1], 79% in assay [2] and 67% in assay [3]. Besides, the IC50 at human PI3K(p110α/p85α) came out at 0.01 µM.

As for `Nc1ncc(-c2nc(N3CCOCC3)nc3c2CCN3c2ccc(C(=O)N3CCN(c4ccncc4)CC3)cc2F)cn1` [Example D-286, {4-[4-(2-Amino-pyrimidin-5-yl)-2-morpholin-4-yl-5,6-dihydro-pyrrolo[2,3-d]pyrimidin-7-yl]-3-fluoro-phenyl}-(4-pyridin-4-yl-piperazin-1-yl)-methanone], the results for the inhibition at 2.5 µM in assay [1], in assay [2] and in assay [3] were 94%, 89% and 97%, respectively. For the same compound, the IC50 on human PI3K(p110α/p85α) was 0.008 µM.

In the case of `CCN1CCN(c2ccc(C)c(NC(=S)N3CCc4c(-c5cnc(N)nc5)nc(N5CCOCC5)nc43)c2)CC1` [Example D-290, 4-(2-Amino-pyrimidin-5-yl)-2-morpholin-4-yl-5,6-dihydro-pyrrolo[2,3-d]pyrimidine-7-carbothioic acid [5-(4-ethyl-piperazin-1-yl)-2-methyl-phenyl]-amide], the figures for the inhibition at 2.5 µM in assay [1], in assay [2] and in assay [3] were 99%, 99% and 18%, respectively. In addition, the IC50 at human PI3K(p110α/p85α) was 0.009 µM.

With `Nc1ncc(-c2nc(N3CCOCC3)nc3c2CCN3c2ccc(C(=O)N3CCC(N4CCOCC4)CC3)cc2)cn1` [Example D-307, {4-[4-(2-Amino-pyrimidin-5-yl)-2-morpholin-4-yl-5,6-dihydro-pyrrolo[2,3-d]pyrimidin-7-yl]-phenyl}-(4-morpholin-4-yl-piperidin-1-yl)-methanone], the inhibition at 2.5 µM in assay [1] was 87%; in assay [2], 89%; in assay [3], 58%. For the same compound, the IC50 at human PI3K(p110α/p85α) was 0.009 µM.

The record behind these values is patent US8022205B2, “Pyrimidine derivatives as PI3K inhibitor and use thereof” (Chugai Seiyaku Kabushiki Kaisha, priority 2006, dated 2011).
